Activity calls are given as the source filed them.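 The calls were made as follows: active = compounds with IC50 below 20 µM; inactive = the rest.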

What is called IC50 is the concentration that inhibits the measured activity by half.

In this test the target is Type-1 angiotensin II receptor (Homo sapiens) (UniProt P30556). The experiment in a line: AT1 receptor antagonists, beta-arrestin recruitment, SAR follow-up, selectivity assay for APJ antagonist project, cell-based, CHO-K1 PathHunter, luminescence (AID 488810).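 Also: agonist challenge with angiotensin II at 50 nM final near its EC80.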 Conditions: CHO-K1 AGTR1 PathHunter beta-arrestin, antagonist mode. Background: Activated receptors often draw arrestin, which recruitment assays turn into a signal.
Type-1 angiotensin II receptor (Homo sapiens), sequence (P30556 whole entry, looked up): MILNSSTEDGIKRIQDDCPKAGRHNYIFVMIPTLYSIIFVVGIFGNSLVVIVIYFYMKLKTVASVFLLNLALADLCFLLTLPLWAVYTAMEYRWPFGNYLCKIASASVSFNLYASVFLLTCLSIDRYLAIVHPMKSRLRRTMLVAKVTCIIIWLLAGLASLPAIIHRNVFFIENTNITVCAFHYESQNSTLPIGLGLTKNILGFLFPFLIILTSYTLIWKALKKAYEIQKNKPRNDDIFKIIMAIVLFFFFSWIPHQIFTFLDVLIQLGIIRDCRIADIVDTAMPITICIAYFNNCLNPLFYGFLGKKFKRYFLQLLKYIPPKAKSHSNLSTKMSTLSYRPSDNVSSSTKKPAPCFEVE
As for `CSC1=NC2(CC(c3ccccc3)c3cc(Cl)c(O)cc3O2)CC(C)(C)N1` (stereo not drawn), the IC50 was > 79 µM (inactive).

`Cc1ccccc1NCC(O)c1ccc(Cl)cc1` (stereo not drawn): the IC50 was > 79 µM (inactive).

As to `O=C(Oc1coc(CSc2ncccn2)cc1=O)c1ccc(Br)cc1`, the IC50 is > 79 µM (inactive).

On to `Cc1c(O)ccc2c1OC1(CC2c2ccccc2Cl)CC(C)(C)NC(=O)N1` (stereo not drawn), for which the IC50 was > 79 µM (inactive).

Take `CC(C)(C)c1ccc(-n2nc(C#N)c(Cl)cc2=O)cc1`: the IC50 is 8.21 µM.

As for `FC(F)(F)c1cccc(Sc2nc(-c3ccccc3)nnc2C(F)(F)F)c1`, the IC50 was 17.9 µM.

As to `O=C(Nc1nc2ccc(F)cc2s1)c1ccccn1`, the IC50 is 5.27 µM.

Take `Cc1cc(C)nc(SCc2cc(=O)c(OC(=O)c3cccc([N+](=O)[O-])c3C)co2)n1`: the IC50 was > 79 µM (inactive).

As to `CCN(CC)CC(=O)c1ccc(-c2ccccc2)cc1`, the IC50 was 10 µM.

Take `O=C(CNc1ccccc1C(=O)O)c1ccccc1`: the IC50 is 2.1 µM.

Take `Cc1ccnc(SCc2cc(=O)c(OC(=O)c3ccccc3)co2)n1`: the IC50 is > 79 µM (inactive).

For `COc1ccc(S(=O)(=O)NNc2nc(C)cc(C)n2)cc1Br`, the IC50 entry was “inactive”.

With `CC(=O)c1ccc(N=C2C(=O)Nc3ccccc32)cc1`, the IC50 was 1.29 µM.

With `O=C(Oc1coc(CSc2ncccn2)cc1=O)c1ccc(Cl)cc1`, the IC50 was > 79 µM (inactive).

As for `Cc1ccc(NCC(=O)c2ccccc2)cc1`, the IC50 was 2.56 µM.

With `O=C(COC(=O)c1ccncc1)c1ccc(Cl)c(Cl)c1`, the IC50 is 19.8 µM.

For the compound `O=C1Nc2ccccc2C1=Nc1ccc(F)cc1`, the IC50 is 9.49 µM.

On to `Cc1ccnc(SCc2cc(=O)c(OC(=O)c3ccc([N+](=O)[O-])cc3)co2)n1`, for which the IC50 was > 79 µM (inactive).

Take `CCOc1ccc(N=C2C(=O)Nc3ccc(C)c(Br)c32)cc1`: the 50% inhibitory concentration (IC50) was 7.56 µM.

As for `CC(=O)Oc1cc2c(cc1Cl)C(c1ccccc1Cl)CC1(CC(C)(C)NC(=S)N1)O2` (stereo not drawn), the IC50 result was “inactive”.

As to `O=C(Nc1nc2c(F)cc(F)cc2s1)c1ccccn1`, the IC50 is 4.52 µM.

As to `Cc1ccc2nc(C)cc(C(=O)OCC(=O)c3ccc(Cl)c([N+](=O)[O-])c3)c2c1`, the IC50 is 7.74 µM.

Turning to `O=c1c2cc(Br)ccc2[nH]c(=S)n1Cc1ccccn1`, the IC50 was 15.6 µM.

For the origin of these results see PubChem BioAssay AID488810 (Sanford-Burnham Center for Chemical Genomics, 2010).
